Test [1] addresses CDK4/Cyclin D1 (Homo sapiens (Human), UniProt P11802). The test is described as follows: CDK4/CyclinD1 enzymatic activity assay (TR-FRET). The class given is biochemical. Conditions: CDK4/CyclinD1 1 nM, ATP 2 mM, read-out: CDK4_D1 IC50. The protocol: CDK4/CyclinD1 Enzymatic Activity Assay
The inhibitory activity of compounds was evaluated in vitro using TR-FRET assay with white 384-well low volume microplate (Greiner Bio-One). CDK4/Cyclin D1 catalyzed phosphorylation of peptide in the presence and absence of compounds was measured. IC50 determination. Recombinant protein complex CDK4/Cyclin D1, expressed from insect cell, was purchased from ProQinase. Testing compounds were dissolved in DMSO at 0.1 mM and tested in 9-dose IC50 mode. The reaction mixture was prepared by mixing CDK4/CyclinD1 (1 nM final), ULight-4E-BP1 (100 nM final, Perkinelmer, TRF0128-D), and ATP (2 mM final) in assay buffer (20 mM of HEPES pH 7.4, 1 mM of EGTA, 0.05% BSA, 0.005% Tween 20, and 1 mM TCEP). The compound of interest in DMSO was added to each well in 3-fold serial dilution by dispenser (TECAN D300E). After 20 minutes preincubation at room temperature, MgCl2 (10 mM final) was added to initiate the reaction. Following a 60 minutes incubation at 37° C., the reaction was stopped by addition of 2 μL of quenching buffer consisting of Lance detection buffer (Perkinelmer CR97-100C), 2 nM LANCE Ultra Europium-anti-P-4E-BP1 (Perkinelmer, TRF0216-D), 10 mM EDTA, and incubate at room temperature for additional 60 minutes in dark. The reaction signal was measured by Envision multimode plate reader (PerkinElmer, 2102-0010). IC50 values were determined by fitting the data to the standard 4 parameters with Hill Slope using GraphPad Prism software.

For test [2], the system named is MCF7 adenocarcinoma cell line. In words: Cell proliferation studies in MCF7 cells (ATP-Lite). The class given is cell-based. The following applies: 10 days incubation, cell viability by ATP-Lite luminescence, read-out: PROLIFERATION_CTG_MCF7 IC50. The protocol: Cell Proliferation Studies in MCF7 Cells
Cell proliferation studies were conducted in MCF7 adenocarcinoma cell line. Cells were maintained in DMEM (Corning, Catalog #: 10-013-CV) supplemented with 10% v/v FBS (Gibco, Catalog #: 26140-079), 1% v/v Penicillin Streptomycin (Gibco, Catalog #15140-122) Cells were seeded in 384-well plates at a density of 100 or 200 cells/well. Compounds dissolved in DMSO were plated in quadruplicate using a digital dispenser (D300E, Tecan) and tested on a 9-point 3-fold serial dilution. Cells were incubated for 10 days in a 37° C. active humidified incubator at 5% CO2. A media exchange and second compound addition were performed on day 5. Cell viability was measured using the ATP-Lite 1-Step Luminescence reagent (Perkin Elmer, Catalog #: 6016731) as per manufacturer's instructions. Luminescence signal was measured with a multimode plate reader (Envision 2105, Perkin Elmer). Raw data files were imported to Dotmatics Screening Ultra for IC50 analysis. Luminescence values were normalized to both background and DMSO controls to obtain a percentage of viable cells relative to DMSO vehicle control.

The record followed here is patent US20250163074A1, “CDK Inhibitors And Their Use As Pharmaceuticals” (Prelude Therapeutics Incorporated, priority 2020, published 2025).

Structures are written as SMILES. Where two headings read alike, the source gives them in different places.

Chain of CDK4/Cyclin D1 (P11802 whole entry): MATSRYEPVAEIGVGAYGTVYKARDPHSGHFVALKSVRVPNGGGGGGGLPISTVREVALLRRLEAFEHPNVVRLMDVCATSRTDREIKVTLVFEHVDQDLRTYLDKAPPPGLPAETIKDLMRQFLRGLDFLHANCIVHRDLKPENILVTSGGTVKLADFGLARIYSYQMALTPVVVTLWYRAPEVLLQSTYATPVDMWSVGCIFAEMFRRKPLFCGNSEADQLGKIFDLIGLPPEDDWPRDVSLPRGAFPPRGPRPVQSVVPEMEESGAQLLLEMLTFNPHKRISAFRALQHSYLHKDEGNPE
Chain of CDK4/Cyclin D1 (P24385 whole entry partner): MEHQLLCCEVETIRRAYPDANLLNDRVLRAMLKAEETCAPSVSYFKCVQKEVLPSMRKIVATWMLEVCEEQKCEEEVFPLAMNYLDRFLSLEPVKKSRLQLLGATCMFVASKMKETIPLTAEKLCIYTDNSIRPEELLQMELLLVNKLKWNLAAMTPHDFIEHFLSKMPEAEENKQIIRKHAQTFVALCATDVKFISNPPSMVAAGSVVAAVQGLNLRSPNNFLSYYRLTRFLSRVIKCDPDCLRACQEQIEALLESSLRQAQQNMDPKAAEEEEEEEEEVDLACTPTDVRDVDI

As for `CCN1C(=O)c2c(sc(-c3nc(Nc4ccc(C5CCN(C)CC5)cn4)ncc3Cl)c2C)C12CC2` [Example 11, 2′-(5-Chloro-2-((5-(1-methyl-piperidin-4-yl)pyridin-2-yl)amino)pyrimidin-4-yl)-5′-ethyl-3′-methylspiro[cyclopropane-1,6′-thieno[2,3-c]pyrrol]-4′(5′H)-one], the IC50 in test [1] is at most 20 nM; in test [2] (Homo sapiens, 240 h), 20 to 200 nM. In the case of `CCN1C(=O)c2cc(-c3nc(Nc4ccc(N5C[C@H]6CN(C)C[C@H]6C5)cn4)ncc3C)sc2C12CC2` [Example 17], the values for the IC50 in test [1] and in test [2] were at most 20 nM and 20 to 200 nM, respectively.

Consider `CCN1C(=O)c2cc(-c3nc(Nc4ccc(C5CCN(C)CC5)cn4)ncc3C)sc2C12CC2` [Example 19, 5′-Ethyl-2′-[5-methyl-2-[[5-(1-methylpiperidin-4-yl)pyridin-2-yl]amino]pyrimidin-4-yl]spiro[cyclopropane-1,6′-thieno[2,3-c]pyrrole]-4′-one], for which the IC50 is at most 20 nM in test [1] and 20 to 200 nM in test [2] (Homo sapiens, 240 h). In the same order, the values of `CCN1CCC(c2ccc(Nc3ncc(F)c(-c4cc5c(s4)C4(CC4)CN(C)C5=O)n3)nc2)C1` (stereo not shown) [Example 31, 2′-(2-((5-(1-Ethylpyrrolidin-3-yl)pyridin-2-yl)amino)-5-fluoropyrimidin-4-yl)-5′-methyl-5′,6′-dihydro-4′H-spiro[cyclo-propane-1,7′-thieno[3,2-c]pyridin]-4′-one] are at most 20 nM and 200 to 2000 nM. For `Cc1c(-c2nc(Nc3ccc(N4CC5CC(C4)N5C)cn3)ncc2F)sc2c1C(=O)N(C)CC21CC1` [Example 33, 2′-(5-Fluoro-2-((5-(6-methyl-3,6-diazabicyclo[3.1.1]heptan-3-yl)pyridin-2-yl)amino)pyrimidin-4-yl)-3′,5′-dimethyl-5′,6′-dihydro-4′H-spiro[cyclopropane-1,7′-thieno[3,2-c]pyridin]-4′-one], in that order: at most 20 nM and 20 to 200 nM. In the same order, the values of `CCN1CCN(Cc2ccc(Nc3ncc(F)c(-c4sc5c(c4C)C(=O)N(C)CC54CC4)n3)nc2)CC1` [Example 38, 2′-(2-((5-((4-Ethylpiperazin-1-yl)methyl)pyridin-2-yl)amino)-5-fluoropyrimidin-4-yl)-3′,5′-dimethyl-5′,6′-dihydro-4′H-spiro[cyclopropane-1,7′-thieno[3,2-c]pyridin]-4′-one] are at most 20 nM and 200 to 2000 nM. In the case of `CCN1CC2(C1)CN(c1ccc(Nc3ncc(C)c(-c4sc5c(c4C)C(=O)N(C)CC54CC4)n3)nc1)C2` [Example 42, 2-[2-[[5-(6-Ethyl-2,6-diazaspiro[3.3]heptan-2-yl)pyridin-2-yl]amino]-5-methylpyrimidin-4-yl]-3,5-dimethylspiro[6H-thieno[3,2-c]pyridine-7,1′-cyclopropane]-4-one], the IC50 in test [1] is at most 20 nM; in test [2] (Homo sapiens, 240 h), 20 to 200 nM. For the compound `CCN1CC2(C1)CN(c1ccc(Nc3ncc(Cl)c(-c4sc5c(c4C)C(=O)N(C)CC54CC4)n3)nc1)C2` [Example 44], the IC50 is at most 20 nM in test [1] and 20 to 200 nM in test [2]. In the case of `CN1CC2(CCC2)c2sc(-c3nc(Nc4ccc(C5CCN(CC(F)F)CC5)cn4)ncc3F)cc2C1=O` [Example 49, 2′-(2-((5-(1-(2,2-Difluoroethyl)piperidin-4-yl)pyridin-2-yl)amino)-5-fluoropyrimidin-4-yl)-5′-methyl-5′,6′-dihydro-4′H-spiro[cyclobutane-1,7′-thieno[3,2-c]pyridin]-4′-one], the IC50 in test [1] was at most 20 nM.

As to `CCN1CCN(Cc2ccc(Nc3ncc(F)c(-c4sc5c(c4C)C(=O)N(C)CC54CCC4)n3)nc2)CC1` [Example 56, 2′-(2-((5-((4-Ethylpiperazin-1-yl)methyl)pyridin-2-yl)amino)-5-fluoropyrimidin-4-yl)-3′,5′-dimethyl-5′,6′-dihydro-4′H-spiro[cyclobutane-1,7′-thieno[3,2-c]pyridin]-4′-one], the IC50 in test [1] is at most 20 nM. Same read-out and setting: in the case of `CN1CCN(c2ccc(Nc3ncc(F)c(-c4cc5c(s4)C4(CCCC4)CN(C)C5=O)n3)nc2)C(C(F)(F)F)C1` (stereo not shown) [Example 65, 2-[5-Fluoro-2-[[5-[4-methyl-2-(trifluoromethyl)piperazin-1-yl]pyridin-2-yl]amino]pyrimidin-4-yl]-5-methylspiro[6H-thieno[3,2-c]pyridine-7,1′-cyclopentane]-4-one] it was at most 20 nM; in that of `CCN1CCN(Cc2ccc(Nc3ncc(F)c(-c4ccc5c(c4)C4(CCCC4)CN(C)C5=O)n3)nc2)CC1` [Example 68, 6′-(2-((5-((4-Ethylpiperazin-1-yl)methyl)pyridin-2-yl)amino)-5-fluoropyrimidin-4-yl)-2′-methyl-2′,3′-dihydro-1′H-spiro [cyclo-pentane-1,4′-isoquinolin]-1′-one], at most 20 nM; in that of `CCN1CC2(C1)CN(c1ccc(Nc3ncc(F)c(-c4ccc5c(c4)C4(CCC4)CN(C)C5=O)n3)nc1)C2` [Example 69, 6′-(2-((5-(6-Ethyl-2,6-diazaspiro[3.3]heptan-2-yl)pyridin-2-yl)amino)-5-fluoropyrimidin-4-yl)-2′-methyl-2′,3′-dihydro-1′H-spiro[cyclobutane-1,4′-isoquinolin]-1′-one], 20 to 200 nM. Same read-out and setting: under `C/C=C/CN1CCC(c2ccc(Nc3ncc(F)c(-c4sc5c(c4C)C(=O)N(C)C54CC4)n3)nc2)C1` (stereo not shown) [Example 72, (E)-2′-(2-((5-(1-(But-2-en-1-yl)pyrrolidin-3-yl)pyridin-2-yl)amino)-5-fluoropyrimidin-4-yl)-3′,5′-dimethylspiro[cyclopropane-1,6′-thieno[2,3-c]pyrrol]-4′(5′H)-one] stands at most 20 nM; under `CCN1CC2(C1)CN(c1ccc(Nc3ncc(F)c(-c4cc5c(s4)C4(CCCCC4)CN(CC)C5=O)n3)nc1)C2` [Example 75, 5′-Ethyl-2′-(2-((5-(6-ethyl-2,6-diazaspiro[3.3]heptan-2-yl)pyridin-2-yl)amino)-5-fluoropyrimidin-4-yl)-5′,6′-dihydro-4′H-spiro[cyclohexane-1,7′-thieno[3,2-c]pyridin]-4′-one], 20 to 200 nM; under `CCN1CC2(C1)CN(c1ccc(Nc3ncc(F)c(-c4cc5c(s4)C4(CN(C)C5=O)CC5(CC5)C4)n3)nc1)C2` [Example 76, 2″-(2-((5-(6-Ethyl-2,6-diazaspiro[3.3]heptan-2-yl)pyridin-2-yl)amino)-5-fluoropyrimidin-4-yl)-5″-methyl-5″,6″-dihydro-4″H-dispiro[cyclopropane-1,1′-cyclobutane-3′,7″-thieno[3,2-c]pyridin]-4″-one], at most 20 nM.

In the case of `CN1CCC(c2ccc(Nc3ncc(F)c(-c4ccc5c(c4)C4(CCCC4)N(C)C5=O)n3)nc2)CC1` [Example 79, 6′-(5-Fluoro-2-((5-(1-methylpiperidin-4-yl)pyridin-2-yl)amino)pyrimidin-4-yl)-2′-methylspiro[cyclopentane-1,1′-isoindolin]-3′-one], the IC50 in test [1] was in the range of 20 to 200 nM.

`CN1CCC(c2ccc(Nc3ncc(F)c(-c4cc5c(s4)C4(CN(C)C5=O)CC(F)(F)C4)n3)nc2)CC1` [Example 84, 3,3-Difluoro-2′-(5-fluoro-2-((5-(1-methylpiperidin-4-yl)pyridin-2-yl)amino)pyrimidin-4-yl)-5′-methyl-5′,6′-dihydro-4′H-spiro[cyclobutane-1,7′-thieno[3,2-c]pyridin]-4′-one]: in test [1], the IC50 fell in the range of 20 to 200 nM. Same read-out and setting: in the case of `CCN1CC2(C1)CN(c1ccc(Nc3ncc(F)c(-c4cc5c(s4)C4(CN(C)C5=O)CC(F)(F)C4)n3)nc1)C2` [Example 85, 2′-(2-((5-(6-Ethyl-2,6-diazaspiro[3.3]heptan-2-yl)pyridin-2-yl)amino)-5-fluoropyrimidin-4-yl)-3,3-difluoro-5′-methyl-5′,6′-dihydro-4′H-spiro[cyclobutane-1,7′-thieno[3,2-c]pyridin]-4′-one] it was 20 to 200 nM; in that of `CN1CCC(c2ccc(Nc3ncc(F)c(-c4cc5c(s4)C4(CCCC4)CN(C)C5=O)n3)nn2)CC1` [Example 87, 2-[5-Fluoro-2-[[6-(1-methylpiperidin-4-yl)pyridazin-3-yl]amino]pyrimidin-4-yl]-5-methylspiro[6H-thieno[3,2-c]pyridine-7,1′-cyclopentane]-4-one], 20 to 200 nM.
